Test results reported in US20240024405A1, “COMPOSITIONS OF CASPASE INHIBITORS AND METHODS OF USE THEREOF” (priority 2022, published 2024).
Where a SMILES comes first, the peptide text is derived from it. The star is where a group is joined. Cbz = O=C(OCc1ccccc1)*; CH2F = FC*

Experiments:
[1] = tested on: caspase-6; assay type: cell-based
[2] = tested on: SARS-CoV-2
[3] = tested on: MERS-CoV; assay type: cell-based
[4] = tested on: SARS-CoV-2; design: species or system Golden Syrian hamsters; details: in vivo
[5] = tested on: MERS-CoV
[6] = tested on: SARS-CoV-1; assay type: cell-based
[7] = tested on: HCoV-OC43
[8] = tested on: influenza virus (H1N1); assay type: cell-based
[9] = tested on: MERS-CoV; assay type: cell-based; remark: listed apart in the source
[10] = tested on: HCoV-229E; assay type: cell-based
[11] = tested on: rMERS-CoV/TKKA; assay type: cell-based, MERS-CoV
[12] = tested on: MERS-CoV; assay type: cell-based, human
[13] = target: T1, caspase-6 (Homo sapiens, UniProt P55212); assay type: cell-based
T1 construct: expressed in transfected cells
T1 sequence (P55212 24-179 limits assumed): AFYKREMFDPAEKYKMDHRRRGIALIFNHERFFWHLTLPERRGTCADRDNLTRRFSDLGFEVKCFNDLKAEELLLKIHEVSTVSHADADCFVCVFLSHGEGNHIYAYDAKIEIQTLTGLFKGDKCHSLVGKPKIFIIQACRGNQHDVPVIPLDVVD
T1 sequence (P55212 194-293 limits assumed): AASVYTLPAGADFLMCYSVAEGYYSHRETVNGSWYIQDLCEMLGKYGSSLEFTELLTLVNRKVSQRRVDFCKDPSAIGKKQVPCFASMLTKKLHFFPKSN

[14] = tested on: MERS-CoV MA; design: species or system mice; details: in vivo
[15] = tested on: MERS-CoV; assay type: cell-based; remark: listed apart in the source
[16] = tested on: MERS-CoV; assay type: cell-based, human; remark: listed apart in the source
[17] = tested on: rMERS-CoV/TKKD; assay type: cell-based, MERS-CoV
[18] = tested on: enterovirus A71; assay type: cell-based
[19] = tested on: MERS-CoV; assay type: cell-based; remark: listed apart in the source

Question: With CN[C@@H]1C[C@H]2O[C@@](C)([C@@H]1OC)n1c3ccccc3c3c4c(c5c6ccccc6n2c5c31)C(=O)NC4 [Staurosporine] as the compound, how does the “Caspase-6 activity in cell lysate” value [1] read?
Answer: Its value is “activated”.

Question: CC[C@H](C)[C@H](NC(=O)[C@H](CCC(=O)OC)NC(=O)[C@@H](NC(=O)OCc1ccccc1)C(C)C)C(=O)N[C@@H](CC(=O)OC)C(=O)CF [z-VEID-fmk, Z-Val-Glu(OMe)-Ile-Asp(OMe)-CH2F] (Cbz-VE(OMe)ID(OMe)-CH2F) was tested. Which “SARS-CoV-2 replication (RdRp gene copy)” value [2] did it give?
Answer: The value was “attenuated”.

Question: What about the “Virus replication when inhibitor added during MERS-CoV inoculation” value [3] of the same compound?
Answer: The value was “did not reduce”.

Question: And the “Alveolar space immune cells infiltration” value ([4]; hamster)?
Answer: Its value is “dramatically inhibited”.

Question: What about the “Body weight of infected hamsters” value ([4]; hamster) of the same compound?
Answer: Its value is “significant improvements”.

Question: And the “Lung damage by histopathological scores” value ([4]; hamster)?
Answer: Its value is “significantly ameliorated”.

Question: What about the “Tissue damage: bronchiolitis, alveolitis and vasculitis” value ([4]; hamster) of the same compound?
Answer: The value was “significantly ameliorated”.

Question: And the “Expression of virus-induced pro-inflammatory cytokines and chemokines in hamster lungs” value [4]?
Answer: Its value is “ameliorated”.

Question: What about the “Hamster lung pathology (H&E)” value [4] of the same compound?
Answer: Its value is “markedly improved”.

Question: What about the “Number of viral N-protein positive cells in hamster lungs” value [4] of the same compound?
Answer: Its value is “reduced”.

Question: What about the “SARS-CoV-2 replication in the hamster lungs” value [4] of the same compound?
Answer: Its value is “significantly reduced”.

Question: And the IC50 [5]?
Answer: The IC50 was 21.1 µM.

Question: And the “Inhibitory effect on MERS-CoV replication across cell types” value [5]?
Answer: The value was “conserved across different cell types exceptVeroE6 cells”.

Question: And the “MERS-CoV replication (N gene copy)” value [5]?
Answer: Its value is “attenuated”.

Question: And the “SARS-CoV-1 replication (N gene copy)” value [6]?
Answer: The value was “attenuated”.

Question: What about the “HCoV-OC43 replication (N gene copy)” value [7] of the same compound?
Answer: Its value is “attenuated”.

Question: What about the IC50 [7] of the same compound?
Answer: Its IC50 is 30.6 µM.

Question: What about the “H1N1 replication (M gene copy)” value [8] of the same compound?
Answer: The value was “did not impact”.

Question: And the “Viral inhibitory effect in stable caspase-6 knockdown cells” value [9]?
Answer: The value was “largely diminished”.

Question: What about the “HCoV-229E replication (N gene copy)” value [10] of the same compound?
Answer: The value was “attenuated”.

Question: And the “Replication of rMERS-CoV/TKKA” value [11]?
Answer: The value was “not limited”.

Question: What about the “MERS-CoV nucleocapsid (N) protein and N gene expression in human lung tissues” value [12] of the same compound?
Answer: The value was “significantly reduced”.

Question: What about the “Cleavage of MERS-CoV N by co-expressed caspase-6” value [13] of the same compound?
Answer: Its value is “completely abolished”.

Question: And the “N cleavage in MERS-CoV-infected cells” value [13]?
Answer: Its value is “similarly inhibited”.

Question: And the “Expression of pro-inflammatory cytokines and chemokines in mouse lungs” value [14]?
Answer: Its value is “significantly attenuated”.

Question: What about the “Body weight loss of infected mice” value ([14]; mouse) of the same compound?
Answer: Its value is “largely inhibited”.

Question: What about the “MERS-CoV MA replication in the lungs” value ([14]; mouse) of the same compound?
Answer: The value was “effectively reduced”.

Question: What about the “Survival of infected hDPP4 KI mice” value ([14]; mouse) of the same compound?
Answer: The value was 80%.

Question: And the “MERS-CoV replication among specific caspase inhibitors (MERS-CoV N-positive cells)” value [15]?
Answer: The value was “most dramatically limited”.

Question: What about the “MERS-CoV replication in human intestinal organoids” value [16] of the same compound?
Answer: The value was “inhibited”.

Question: What about the “Inhibition of production of infectious virus particles in human intestinal organoids” value ([16]; 100 µM) of the same compound?
Answer: The value was “approximately 80%”.

Question: What about the “Replication of rMERS-CoV/TKKD” value [17] of the same compound?
Answer: Its value is “remained effective”.

Question: What about the “Enterovirus A71 replication (VP1 gene copy)” value [18] of the same compound?
Answer: Its value is “did not impact”.

Question: And the “Antiviral effect of z-VEID-fmk when the IFN pathway is non-functional” value [19]?
Answer: Its value is “diminished”.

Question: z-VAD-fmk was tested. Which “SARS-CoV-2 replication with pan-caspase inhibitor” value [2] did it give?
Answer: Its value is “similarly limited”.

Question: What about the “MERS-CoV replication with pan-caspase inhibitor” value [5] of the same compound?
Answer: The value was “significantly limited”.

Question: What about the “SARS-CoV-1 replication with pan-caspase inhibitor” value [6] of the same compound?
Answer: Its value is “similarly limited”.

Question: What about the “HCoV-OC43 replication with pan-caspase inhibitor” value [7] of the same compound?
Answer: Its value is “similarly limited”.

Question: What about the “HCoV-229E replication with pan-caspase inhibitor” value [10] of the same compound?
Answer: The value was “similarly limited”.
